In paper PMC5697763 (Bioconjugate chemistry, 2016) one finds IC50 and Hill coefficient data, which are given here for two molecules.

Usually IC50 stands for the midpoint of a concentration-inhibition curve. In general, Hill coefficient refers to the slope factor of the fitted curve.

The structures appear in SMILES notation. Where “and” joins values, the source holds several entries; their conditions need not be identical. Identical values can stand only once. Like-named read-outs stand apart in the source and are kept apart here.

The experiment deals with LMCA1 (Listeria monocytogenes serovar 1/2a, UniProt Q8Y8Q5). As to the kind of experiment: biochemical. The experiment is classed as biochemical.
Sequence of LMCA1 (Q8Y8Q5 whole entry): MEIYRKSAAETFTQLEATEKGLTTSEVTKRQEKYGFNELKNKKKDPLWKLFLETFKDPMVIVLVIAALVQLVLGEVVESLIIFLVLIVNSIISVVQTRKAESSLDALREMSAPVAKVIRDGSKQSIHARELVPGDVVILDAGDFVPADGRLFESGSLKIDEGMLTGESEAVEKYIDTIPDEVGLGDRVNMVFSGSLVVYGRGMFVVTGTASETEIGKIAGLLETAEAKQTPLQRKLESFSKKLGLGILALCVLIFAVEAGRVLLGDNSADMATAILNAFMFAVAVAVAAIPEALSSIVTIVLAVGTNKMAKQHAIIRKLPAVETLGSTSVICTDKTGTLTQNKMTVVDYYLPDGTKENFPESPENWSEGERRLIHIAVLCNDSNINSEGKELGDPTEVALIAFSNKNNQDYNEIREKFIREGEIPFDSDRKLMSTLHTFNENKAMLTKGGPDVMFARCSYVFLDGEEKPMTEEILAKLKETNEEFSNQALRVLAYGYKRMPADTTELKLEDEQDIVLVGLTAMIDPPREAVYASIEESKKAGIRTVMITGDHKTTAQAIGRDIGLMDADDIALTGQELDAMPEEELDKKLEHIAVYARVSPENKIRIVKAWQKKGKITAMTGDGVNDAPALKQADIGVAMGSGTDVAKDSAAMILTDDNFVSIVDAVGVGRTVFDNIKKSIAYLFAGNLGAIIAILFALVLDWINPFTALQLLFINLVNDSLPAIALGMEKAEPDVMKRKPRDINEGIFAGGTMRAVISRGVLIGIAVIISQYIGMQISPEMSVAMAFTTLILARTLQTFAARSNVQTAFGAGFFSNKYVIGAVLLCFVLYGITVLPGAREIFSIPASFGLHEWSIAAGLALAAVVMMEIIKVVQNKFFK

`[Be+2]` [BeSO4]: the half-maximal inhibitory concentration (IC50) was 27 ± 5 µM. Further, the Hill coefficient (absence of NaF (H2O)) is listed as −0.72 ± 0.08. This molecule also came in with a Hill coefficient (constant NaF concentration of 0.5 mM) of −1.1 ± 0.1.

Turning to `F` [NaF], the Hill coefficient is −2.4 and −2.4 ± 0.4; inhibition was half-maximal at 2300 ± 200 µM (IC50).
